Experimental data taken from the supplement of paper PMC11061612.

Assays:
Experiment in all cases: Bliss excess, mean over the matrix (fraction); higher = more synergy
[1] = test system: BL-41 (Burkitt's Lymphoma)
Summary of the method: (§1)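 After 24 hours at 37°C and 5% CO2 in 1536-well plates, cells in DMEM/F12 or RPMI plus 10% FBS received two-drug dose matrices for 72 hours. Viability came from CellTiter-Glo 2.0 luminescence and was scaled as inhibition, anchored at 0 by vehicle wells and at 1 by blank wells. Combination Emax is taken as the second-highest inhibition in the matrix, and Bliss excess as the observed combination effect less EA + EB − EA·EB, with EA and EB the single-agent effects.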

[2] = test system: CAMA-1 (Breast Carcinoma)
Summary of the method: as §1

[3] = test system: DND-41 (T-Lymphoblastic Leukemia)
Summary of the method: as §1

ES1 (Ewing's Sarcoma) = test system: ES1 (Ewing's Sarcoma)
Summary of the method: as §1

ES8 (Ewing's Sarcoma) = test system: ES8 (Ewing's Sarcoma)
Summary of the method: as §1

[4] = test system: HDQ-P1 (Breast Carcinoma)
Summary of the method: as §1

[5] = test system: KCL-22 (Chronic Myelogenous Leukemia)
Summary of the method: as §1

[6] = test system: L-540 (Hodgkin's Lymphoma)
Summary of the method: as §1

LN-18 (Glioblastoma) = test system: LN-18 (Glioblastoma)
Summary of the method: as §1

MEL-JUSO (Melanoma) = test system: MEL-JUSO (Melanoma)
Summary of the method: as §1

[7] = test system: MFM-223 (Breast Carcinoma)
Summary of the method: as §1

[8] = test system: MS751 (Cervical Carcinoma)
Summary of the method: as §1

NCI-H2818 (Mesothelioma) = test system: NCI-H2818 (Mesothelioma)
Summary of the method: as §1

[9] = test system: NCI-H847 (Small Cell Lung Carcinoma)
Summary of the method: as §1

[10] = test system: SR (Other Blood Carcinomas)
Summary of the method: as §1

[11] = test system: SU-DHL-8 (B-Cell Non-Hodgkin's Lymphoma)
Summary of the method: as §1

[12] = test system: SW837 (Colorectal Carcinoma)
Summary of the method: as §1

[13] = test system: TE-6 (Esophageal Squamous Cell Carcinoma)
Summary of the method: as §1

U251 (Low Grade Glioma) = test system: U251 (Low Grade Glioma)
Summary of the method: as §1

WM-115 (Melanoma) = test system: WM-115 (Melanoma)
Summary of the method: as §1

Row | SMILES | Bliss excess [1] | Bliss excess [2] | Bliss excess [3] | Bliss excess (ES1 (Ewing's Sarcoma)) | Bliss excess (ES8 (Ewing's Sarcoma)) | Bliss excess [4] | Bliss excess [5] | Bliss excess [6] | Bliss excess (LN-18 (Glioblastoma)) | Bliss excess (MEL-JUSO (Melanoma)) | Bliss excess [7] | Bliss excess [8] | Bliss excess (NCI-H2818 (Mesothelioma)) | Bliss excess [9] | Bliss excess [10] | Bliss excess [11] | Bliss excess [12] | Bliss excess [13] | Bliss excess (U251 (Low Grade Glioma)) | Bliss excess (WM-115 (Melanoma))
1 | CN(CCO)CC[C@H](CSc1ccccc1)Nc1ccc(S(=O)(=O)NC(=O)c2ccc(N3CCC([C@@H](O)c4ccccc4-c4ccc(Cl)cc4)CC3)cc2)cc1S(=O)(=O)C(F)(F)F [AZD4320] + Cc1cc2ncnn2cc1Nc1ncc2c(n1)n(C1CCOCC1)c(=O)n2C [AZD7648] (first compound max 1 µM, 7x7, partner max 10 µM) | 0.0115 | -0.0031 | -0.0011 | -0.0222 | -0.0594 | -0.0085 | 0.0444 | 0.0389 | 0.0064 | -0.0065 | -0.0229 | -0.0353 | -0.0715 | 0.0478 | -0.0189 | -0.0255 | -0.0273 | -0.0059 | -0.0405 | -0.0054
2 | Cc1c2c(nn1C)CSCc1cc(n(C)n1)CSc1cc(c3ccccc3c1)OCCCc1c(C(=O)O)n(C)c3c-2c(Cl)ccc13 [AZD5991] + CCN(CCO)CCCOc1ccc2c(Nc3cc(CC(=O)Nc4cccc(F)c4)[nH]n3)ncnc2c1 [AZD2811] (first compound max 1 µM, 7x7, partner max 1 µM) | -0.0295 | 0.0743 | 0.0265 | 0.0915 | 0.012 | -0.0283 | 0.0736 | 0.0788 | -0.029 | 0.0389 | 0.0103 | 0.0367 | -0.0116 | 0.0011 | 0.178 | 0.0416 | -0.0341 | 0.0482 | 0.098 | -0.0726
3 | Cc1c2c(nn1C)CSCc1cc(n(C)n1)CSc1cc(c3ccccc3c1)OCCCc1c(C(=O)O)n(C)c3c-2c(Cl)ccc13 [AZD5991] + C=CCn1c(=O)c2cnc(Nc3ccc(N4CCN(C)CC4)cc3)nc2n1-c1cccc(C(C)(C)O)n1 [AZD1775] (first compound max 1 µM, partner max 1 µM) | -0.0133 | -0.0092 | -0.0375 | -0.0524 | 0.0203 | -0.0575 | -0.035 | -0.0127 | -0.0087 | -0.0033 | -0.0611 | -0.0155 | 0.112 | -0.0445 | -0.045 | -0.01 | 0 | 0.0135 | 0.0025 | -0.0328
4 | CC1(C)CCC(CN2CCN(c3ccc(C(=O)NS(=O)(=O)c4ccc(NCC5CCOCC5)c([N+](=O)[O-])c4)c(Oc4cnc5[nH]ccc5c4)c3)CC2)=C(c2ccc(Cl)cc2)C1 [Venetoclax] + CCN(CCO)CCCOc1ccc2c(Nc3cc(CC(=O)Nc4cccc(F)c4)[nH]n3)ncnc2c1 [AZD2811] (first compound max 1 µM, 7x7, partner max 1 µM) | -0.137 | -0.0198 | 0.0178 | 0.0721 | 0.0092 | 0.0063 | 0.0709 | 0.0086 | -0.0146 | -0.0165 | 0.0084 | 0.0094 | -0.0404 | 0.112 | 0.0073 | 0.0103 | 0.0166 | -0.0112 | -0.0104 | -0.0138
5 | CC1(C)CCC(CN2CCN(c3ccc(C(=O)NS(=O)(=O)c4ccc(NCC5CCOCC5)c([N+](=O)[O-])c4)c(Oc4cnc5[nH]ccc5c4)c3)CC2)=C(c2ccc(Cl)cc2)C1 [Venetoclax] + Cc1cc2ncnn2cc1Nc1ncc2c(n1)n(C1CCOCC1)c(=O)n2C [AZD7648] (first compound max 1 µM, 7x7, partner max 10 µM) | -0.0007 | -0.0266 | -0.0221 | 0.0149 | -0.0817 | -0.0288 | 0.0097 | 0.0588 | 0.045 | -0.0235 | -0.0672 | 0.003 | -0.0529 | 0.0002 | -0.0115 | -0.0318 | -0.0563 | -0.0041 | -0.0719 | -0.038
6 | CN(CCO)CC[C@H](CSc1ccccc1)Nc1ccc(S(=O)(=O)NC(=O)c2ccc(N3CCC([C@@H](O)c4ccccc4-c4ccc(Cl)cc4)CC3)cc2)cc1S(=O)(=O)C(F)(F)F [AZD4320] + C[C@@H]1COCCN1C2=NC(=NC(=C2)C3(CC3)[S@](=N)(=O)C)C4=C5C=CNC5=NC=C4 [AZD6738] (first compound max 1 µM, 7x7, partner max 10 µM) | -0.0221 | -0.0016 | -0.0028 | 0.0567 | 0.155 | 0.0268 | 0.0092 | 0.0082 | -0.0705 | -0.0159 | -0.0367 | 0.0029 | -0.157 | -0.0091 | -0.0068 | 0.019 | -0.0618 | -0.0927 | -0.0272 | -0.0413
7 | CN(CCO)CC[C@H](CSc1ccccc1)Nc1ccc(S(=O)(=O)NC(=O)c2ccc(N3CCC([C@@H](O)c4ccccc4-c4ccc(Cl)cc4)CC3)cc2)cc1S(=O)(=O)C(F)(F)F [AZD4320] + CN(C)CCCOc1ccc(-c2ccc3ncc4c(c3c2)n(C2CCOCC2)c(=O)n4C)cn1 [AZD0156] (first compound max 1 µM, 7x7, partner max 1 µM) | 0.0153 | -0.0591 | -0.0036 | -0.0129 | 0.0079 | -0.03 | 0.0373 | 0.0178 | -0.0015 | 0.0034 | -0.0347 | -0.0248 | -0.0501 | 0.0109 | 0.0454 | -0.044 | -0.0322 | 0.0418 | -0.0374 | -0.0469
8 | Cc1cc2ncnn2cc1Nc1ncc2c(n1)n(C1CCOCC1)c(=O)n2C [AZD7648] + CCN(CCO)CCCOc1ccc2c(Nc3cc(CC(=O)Nc4cccc(F)c4)[nH]n3)ncnc2c1 [AZD2811] (first compound max 10 µM, 7x7, partner max 1 µM) | 0.0668 | -0.0677 | 0.0308 | 0.0855 | -0.011 | -0.0154 | 0.115 | 0.048 | 0.0208 | 0.0461 | 0.0257 | -0.0094 | 0.0283 | -0.0211 | -0.0225 | 0.038 | 0.0018 | 0.0257 | -0.0046 | 0.0205
9 | COc1cccc(OCCCN)c1-c1cc(Nc2cnc(C#N)cn2)n[nH]1 [Prexasertib] + Cc1cc2ncnn2cc1Nc1ncc2c(n1)n(C1CCOCC1)c(=O)n2C [AZD7648] (first compound max 1 µM, 7x7, partner max 10 µM) | -0.0265 | -0.0206 | -0.0979 | 0.0088 | -0.0489 | -0.0236 | -0.0133 | -0.0223 | -0.0198 | -0.0383 | 0.0065 | -0.0156 | -0.032 | 0.0131 | 0.0003 | -0.0221 | -0.0143 | 0.001 | -0.0114 | -0.0102
10 | CN(CCO)CC[C@H](CSc1ccccc1)Nc1ccc(S(=O)(=O)NC(=O)c2ccc(N3CCC([C@@H](O)c4ccccc4-c4ccc(Cl)cc4)CC3)cc2)cc1S(=O)(=O)C(F)(F)F [AZD4320] + C1CN(CCC1(C(=O)N[C@@H](CCO)C2=CC=C(C=C2)Cl)N)C3=NC=NC4=C3C=CN4 [Capivasertib] (first compound max 1 µM, 7x7, partner max 3 µM) | -0.0146 | -0.0365 | -0.0205 | 0.0027 | -0.0427 | 0.0119 | -0.0075 | -0.0075 | -0.053 | -0.0472 | -0.01 | -0.009 | -0.126 | 0.0226 | 0.095 | -0.0454 | -0.0453 | 0.0377 | -0.0689 | 0.0144
11 | CN(C)CCCOc1ccc(-c2ccc3ncc4c(c3c2)n(C2CCOCC2)c(=O)n4C)cn1 [AZD0156] + C[C@@H]1COCCN1C2=NC(=NC(=C2)C3(CC3)[S@](=N)(=O)C)C4=C5C=CNC5=NC=C4 [AZD6738] (first compound max 1 µM, 7x7, partner max 10 µM) | 0.0704 | -0.0444 | -0.0034 | 0.0554 | 0.0169 | 0.0214 | 0.0274 | -0.0163 | 0.0505 | 0.0108 | 0.0432 | -0.0221 | -0.0511 | -0.0116 | 0.015 | 0.0169 | 0.0071 | 0.0225 | -0.0087 | -0.0565
12 | Cc1c2c(nn1C)CSCc1cc(n(C)n1)CSc1cc(c3ccccc3c1)OCCCc1c(C(=O)O)n(C)c3c-2c(Cl)ccc13 [AZD5991] + Cn1cnc2c(F)c(Nc3ccc(Br)cc3Cl)c(C(=O)NOCCO)cc21 [Selumetinib] (first compound max 1 µM, 7x7, partner max 3 µM) | -0.0206 | -0.035 | 0.021 | 0.0123 | -0.0171 | 0.0002 | 0.078 | 0.0007 | 0.0745 | 0.0046 | -0.0199 | 0.067 | -0.0458 | 0.042 | -0.0007 | -0.074 | 0.0024 | 0.0043 | -0.0024 | -0.0114
13 | COc1cccc(OCCCN)c1-c1cc(Nc2cnc(C#N)cn2)n[nH]1 [Prexasertib] + CN(C)CCCOc1ccc(-c2ccc3ncc4c(c3c2)n(C2CCOCC2)c(=O)n4C)cn1 [AZD0156] (first compound max 1 µM, 7x7, partner max 1 µM) | -0.0134 | 0.0046 | -0.101 | 0.0127 | -0.011 | 0.023 | -0.0021 | 0.0019 | 0.0304 | 0.0301 | -0.0028 | 0.02 | -0.0871 | -0.0124 | -0.0266 | -0.0553 | -0.0022 | -0.0081 | -0.0092 | -0.0035
14 | Cc1cc2ncnn2cc1Nc1ncc2c(n1)n(C1CCOCC1)c(=O)n2C [AZD7648] + C=CCn1c(=O)c2cnc(Nc3ccc(N4CCN(C)CC4)cc3)nc2n1-c1cccc(C(C)(C)O)n1 [AZD1775] (first compound max 10 µM, partner max 1 µM) | -0.0511 | -0.0068 | -0.0109 | 0.0181 | -0.0014 | -0.0805 | 0.0015 | 0.0106 | 0.0161 | 0.0263 | -0.0357 | 0.0245 | 0.0563 | -0.0216 | -0.0375 | -0.0079 | 0.0241 | -0.07 | -0.014 | 0.0217
